# Source: US20040138169A1, “Composition and use of substances for stabilising amino acids containing sulphur” (priority 2001, published 2004)
# Entries after “also recorded” stand apart in the source; their conditions may differ.
# What was measured:
# [1] = system: homocysteine level in blood; details: cited from earlier work
# [2] = system: HCY-concentration in whole blood; assay: Stabilization of the homocysteine (HCY) concentration in withdrawn whole blood stored in monovettes with stabilizer; assay type: cell-based; details: room temperature; for HCY-SD (duration of stabilization): whole blood in EDTA- or Na-heparin-monovettes with stabilizer (amount per ml blood); for stabilization of homocysteine (duration): whole blood
# Experimental: (§1) Material Used and Processes
# (§2) The following inhibitors of methyl transferase or S-adenosylhomocysteine hydrolase have been tested
# (§3) The effectiveness of the inhibitors have been tested in combination with the following acids:
# (§4) The compositions of further reagents have been:
# (§5) Mixture A: 5(4)-AMCA (5.2 mg) and DEOA (3.2 mg), dissolved in 500 μl phosphate buffer.
# (§6) Composition of the buffer for mixture A:
# (§7) All other substances have been dissolved in water.
# (§8) Blood Withdrawal and Treatment of Samples
# (§9) Corresponding amounts of stabilizers have been provided in EDTA- or Na-heparin-monovettes for each Example or Comparative Example (see Table 1). The blood withdrawal has been carried out in monovettes with and without stabilizers. For the control value, the monovettes have been centrifuged within 30 minutes after withdrawal.
# [3] = system: sulphur-containing amino acids (HCY, CYS, CYSGLY, GLU) in whole blood; assay: Stabilization of sulphur-containing amino acids (HCY, CYS, CYSGLY, GLU) together in whole blood samples; assay type: cell-based; details: substance used alone, samples at room temperature
# Experimental: as §1, §2, §3, §4, §5, §6, §7, §8, §9
# [4] = system: concentration of cysteinyl glycine (CYSGLY) in whole blood; assay: Stabilization of the cysteinyl glycine (CYSGLY) concentration in withdrawn whole blood stored in monovettes with stabilizer; assay type: cell-based
# Experimental: as §1, §2, §3, §4, §5, §6, §7, §8, §9
# [5] = system: concentration of glutathione (GLU) in whole blood; assay: Stabilization of the glutathione (GLU) concentration in withdrawn whole blood stored in monovettes with stabilizer; assay type: cell-based
# Experimental: as §1, §2, §3, §4, §5, §6, §7, §8, §9
# [6] = Storage stability of the reagent; assay type: physicochemical; details: can be stored only in cooled state (+4° C.)
# Experimental: A problem which occurs when using 3-deazaadenosine resides in that noticable variations of the measured values occur, lying in the range of up to 2 μmol/l in 60 hours with homocysteine and in the range of up to 60 μmol/l in 60 hours with cysteine. […] A further problem resides in that 3-deazaadenosine is not stable at room temperature and can be stored only in cooled state (+4° C.), which limits also its shipment capabilities. However, a simple handling of the reagents is of great importance in the diagnostic medicine, because for example withdrawn blood must be present in an unmodified form and transportable over an extended period without larger expenditure like, for example, cooling.
# [7] = system: concentration of cysteine (CYS) in whole blood; assay: Stabilization of the cysteine (CYS) concentration in withdrawn whole blood stored in monovettes with stabilizer; assay type: cell-based; details: whole blood in EDTA- or Na-heparin-monovettes with stabilizer (amount per ml blood), room temperature
# Experimental: as §1, §2, §3, §4, §5, §6, §7, §8, §9
Compound,HCY-SD (duration of stabilization) [2] [h],stabilization of the sulphur-containing amino acids (in words) [3],CYS-SD (duration of stabilization) [7] [h],other results
[F-].[Na+] [NaF],–,–,–,change of the homocysteine level in blood samples (in words) ([1]; in comparison with the initial value at the time of withdrawing the blood): no increase; also recorded: decrease
"Nc1ncnc2c1ncn2[C@@H]1C=C(CO)[C@@H](O)[C@H]1O [Ex. 13, neplanocin A]",70,–,–,–
"NC(=O)c1nc[nH]c1N [5(4)-aminoimidazol-4(5)-carboxamid, 5(4)-aminoimidazol-4(5)-carboxamide]",–,no significant stabilization,–,–
O=C(O)CC(O)(CC(=O)O)C(=O)O [citric acid],–,no stabilization,–,–
"Nc1nccc2c1ncn2[C@@H]1O[C@H](CO)[C@@H](O)[C@H]1O [Cmp.-Ex. 1, 3-deazaadenosin]",56,–,56,increase of the homocysteine level ([1]; 72 hours after the blood withdrawal): about 10%; time over which the reaction from S-adenosylhomocysteine to homocysteine is effectively inhibited ([1]; blood samples): up to 72 hours; time without increase of the homocysteine level in blood ([1]; blood samples): up to 24 hours; inhibition of the formation of cysteinyl glycine (in words) [4]: does not inhibit; inhibition of the formation of glutathione (in words) [5]: does not inhibit; stability of the reagent at room temperature (in words) [6]: not stable
"O=C(O)/C=C/C(=O)O [Cmp.-Ex. 3, fumaric acid]",47,–,47,–
"O=C1O[C@H]([C@@H](O)CO)C(O)=C1O [Cmp.-Ex. 2, ascorbic acid]",73,–,73,"CYSGLY-SD (duration of stabilization) ([4]; whole blood in EDTA- or Na-heparin-monovettes with stabilizer (amount per ml blood), room temperature): 73 h"
"Nc1nccc2c1ncn2[C@@H]1C=C(CO)[C@@H](O)[C@H]1O [Ex. 14, 3-deazaneplanocin A]",143,–,–,stabilization of homocysteine (duration) [2]: at least 143 hours; stabilization of homocysteine (duration) ([2]; listed as 3DA-NeplA): 143 h
Nc1ncnc2c1ncn2[C@H]1C[C@H](O)[C@@H](CO)O1 [2′-deoxyadenosin],–,no significant stabilization,–,–
"O=C(O)CN(CCN(CC(=O)O)CC(=O)O)CC(=O)O [Na-EDTA, ethylenediamine tetraacetic acid]",–,no stabilization,–,–
